Data on 2 compounds can be found in patent publication US11260116B2, “Vaccine compositions comprising an amphipathic compound, a neoantigen and a hydrophobic carrier, and methods of use thereof” (IMMUNOVACCINE TECHNOLOGIES INC., priority 2016, dated 2022).

For series [1] the following is noted: cited from earlier work.
For another series, the system named is Mut30 neoantigen. Briefly: IFN-gamma ELISPOT of splenocytes from vaccinated mice. Format: in vivo. The note with it: Example 3, FIG. 2; C57BL/6 VAF/Elite Crl mice; DNA- or RNA-based poly I:C; single immunization; eight days after vaccination.
The test system of the next series is mutated peptide. The note with it: aqueous formulation, mice, cited from earlier work.

Where two headings read alike, the source gives them in different places.

Protocol for Mut30 neoantigen: Pathogen free, C57BL/6 VAF/Elite® Crl mice, 6-8 weeks of age, were purchased from Charles River Laboratories (St. Constant, PQ) and housed according to institutional guidelines with water and food ad libitum under filter controlled air circulation.
Eight days after vaccination, mice were terminated and spleens collected. […] After 18 hours of culture, plates were developed and the number of spot forming units (SFU) counted using Immunospot Reader (C.T.L.). […] Statistical analysis was performed by 2-way ANOVA with Bonferroni post test comparing group responses to Mut30 peptide: *p<0.05, ***p<0.001.
Oil-based depot vaccine formulations were prepared with Mut30 antigen at a higher (100 micrograms) and lower (50 micrograms) dose.
To prepare the oil-based formulations, the Mut30 peptide (low or high dose amount), polyI:C adjuvant (DNA or RNA) and T-helper epitope (A16L peptide) were first reconstituted in an acetate buffer (0.1M, pH 9.5) with DOPC and cholesterol (Lipoid, Germany). The vaccine components were then lyophilized to form a dry cake. Just prior to injection, the dry cake was reconstituted in ISA51 VG oil (SEPPIC, France).
Mice in group 1 (n=6) were vaccinated with 100 microliters of an oil-based depot vaccine containing 100 micrograms of Mut30 neoantigen, 50 micrograms of A16L peptide, 40 micrograms of DNA-based poly I:C, 12 milligrams of DOPC and 1.2 milligrams of cholesterol. […]

As for `O=P1(N(CCCl)CCCl)NCCCO1` (stereo not shown) [Cyclophosphamide, N,N-bis(2-chloroethyl)-1,3,2-oxazaphosphinan-2-amine 2-oxide], in series [1] (intravenous infusion vs parenteral and oral), the “bioavailability by route of administration” value is given as “little difference in bioavailability”. In addition, the “Total systemic clearance of CPA and its metabolites” value in series [1] (patients) was 5 to 9 h. The “elimination half-life on repeated administration” value in series [1] (repeated administration) is recorded as “shorten elimination half-life”. Further, in series [1] (vary between patients), the “peak plasma levels of the parent” value was 3 to 11 h.
With “Mut30: Kif18b neoantigen (K739N) from B16F10 melanoma, PSKPSFQEFVDWENVSPELNSTDQPFL (SEQ ID NO: 2), from Castle 2012 (Mut30 Neoantigen)”, in the series on Mut30 neoantigen, the “IFN-gamma ELISPOT immune response to Mut30, high (100 micrograms) vs low (50 micrograms) dose” value is on record as “No statistically significant difference”. In addition, the “immune reaction to Mut30 reported by Castle 2012” value with mutated peptide is on record as “strong immune reaction preferentially against the mutated peptide”; in the series with mutated peptide (listed as Mut30 neoantigen) it was “strong mutation-specific immune responses”.
